Source: ChEMBL document CHEMBL1152778, “Design, synthesis, and biological evaluation of (2R,alphaS)-3,4-dihydro-2-[3-(1,1,2,2-tetrafluoroethoxy)phenyl]-5-[3-(trifluoromethoxy)-phenyl]-alpha-(trifluoromethyl)-1(2H)-quinolineethanol as potent and orally active cholesteryl ester transfer protein inhibitor” (J Med Chem, 2009)
Calls of active or inactive are those of the source. No cut-off for these calls is given here.

Key:
[1] = Oral bioavailability in monkey at 10 mg/kg; format: ADME, organism-based, Macaca mulatta; conditions: rhesus monkey, in vivo
Hamster [2] = test: Increase in HDLC level in po dosed high-fat fed hamster model; format: functional, organism-based; conditions: Cricetinae
Hamster [3] = test: Increase in HDLC level in high-fat fed hamster model at 10 mg/kg, po for 5 days measured after 2 hrs of last dose; format: functional, Cricetinae
Hamster [4] = test: Increase in HDLC level in high-fat fed hamster model at 30 mg/kg, po for 5 days measured after 2 hrs of last dose; format: functional, Cricetinae
Hamster [5] = test: Increase in HDLC to LDLC ratio in high-fat fed hamster model at 3 to 30 mg/kg, po for 5 days measured after 2 hrs of last dose; format: functional, Cricetinae; conditions: dose mg/kg 3-30
Mus musculus [6] = test: Increase in HDLC level in po dosed normal chow diet-fed human CETP transgenic mouse model; format: functional, organism-based
Mus musculus [7] = test: Increase in HDLC level in normal chow diet-fed human CETP transgenic mouse model at 3 mg/kg, po for 5 days measured after 2 hrs of last dose; format: functional, organism-based; set-up: dose 3 mg/kg
Mus musculus [8] = test: Increase in HDLC level in normal chow diet-fed human CETP transgenic mouse model at 10 mg/kg, po for 5 days measured after 2 hrs of last dose; format: functional
Mus musculus [9] = test: Increase in HDLC level in normal chow diet-fed human CETP transgenic mouse model at 30 mg/kg, po for 5 days measured after 2 hrs of last dose; format: functional
Cynomolgus monkey [10] = test: Increase in HDLC level in po dosed normal chow diet-fed cynomolgus monkey; format: functional, organism-based; conditions: Macaca fascicularis
Cynomolgus monkey [11] = test: Increase in HDLC level in normal chow diet-fed cynomolgus monkey at 3 mg/kg, po for 5 days measured after 10 hrs of last dose; format: functional, Macaca fascicularis
Cynomolgus monkey [12] = test: Increase in HDLC level in normal chow diet-fed cynomolgus monkey at 10 mg/kg, po for 5 days measured after 10 hrs of last dose; format: functional, Macaca fascicularis
Cynomolgus monkey [13] = test: Increase in HDLC level in normal chow diet-fed cynomolgus monkey at 30 mg/kg, po for 5 days measured after 10 hrs of last dose; format: functional, Macaca fascicularis
Cynomolgus monkey [14] = test: Ex vivo inhibition of CETP in po dosed normal chow diet-fed cynomolgus monkey by Roar assay; format: functional, organism-based; conditions: Macaca fascicularis
Cynomolgus monkey [15] = test: Ex vivo inhibition of CETP in normal chow diet-fed cynomolgus monkey at 3 mg/kg, po for 5 days by Roar assay; format: functional; conditions: Macaca fascicularis, 120 h
Cynomolgus monkey [16] = test: Ex vivo inhibition of CETP in normal chow diet-fed cynomolgus monkey at 10 mg/kg, po for 5 days by Roar assay; format: functional; conditions: Macaca fascicularis, 120 h
Cynomolgus monkey [17] = test: Ex vivo inhibition of CETP in normal chow diet-fed cynomolgus monkey at 30 mg/kg, po for 5 days by Roar assay; format: functional; conditions: Macaca fascicularis, 120 h
[18] = Plasma concentration in normal chow diet-fed cynomolgus monkey at 3 mg/kg, po for 5 days; format: ADME, organism-based, Macaca fascicularis; set-up: dose 3 mg/kg, route oral
[19] = Plasma concentration in normal chow diet-fed cynomolgus monkey at 10 mg/kg, po for 5 days; format: ADME, organism-based, Macaca fascicularis; set-up: dose 10 mg/kg, route oral
[20] = Plasma concentration in normal chow diet-fed cynomolgus monkey at 30 mg/kg, po for 5 days; format: ADME, organism-based, Macaca fascicularis; set-up: dose 30 mg/kg, route oral

bioavailability [1]: 27%
concentration at 120 h [18]: 400 nM
concentration at 120 h [19]: 2700 nM
concentration at 120 h [20]: 5900 nM
Compound: O[C@@H](CN1c2cccc(-c3cccc(OC(F)(F)F)c3)c2CC[C@@H]1c1cccc(OC(F)(F)C(F)F)c1)C(F)(F)F
Activity (Hamster [2]): Dose-dependent effect
Activity (Hamster [3]): 36%
Activity (Hamster [4]): 40%
Activity (Hamster [5]): 4.6
Activity (Mus musculus [6]): Dose-dependent effect
Activity (Mus musculus [7]): Active
Activity (Mus musculus [8]): 36%
Activity (Mus musculus [9]): 25%
Activity (Cynomolgus monkey [10]): Dose-dependent effect
Activity (Cynomolgus monkey [11]): 4%
Activity (Cynomolgus monkey [12]): 16%
Activity (Cynomolgus monkey [13]): 32%
Activity (Cynomolgus monkey [14]): Dose-dependent effect
inhibition in vivo at 3 mg/kg (Cynomolgus monkey [15]): 11%
inhibition in vivo at 10 mg/kg (Cynomolgus monkey [16]): 51%
inhibition in vivo at 30 mg/kg (Cynomolgus monkey [17]): 67%
